Measurements reported in patent publication US9073858B2, “Methods of targeted drug development” (priority 2010, dated 2015).
Read-outs that look alike come from different tables or passages of the source.

How the values were obtained:
[1] = tested on: EGF receptor-mediated cell proliferation; assay: Combinatorial studies with known EGFR inhibitors, median effect analysis (MTT assay); conditions: for DRI @ ED97: Dose Reduction Index
Protocol: Studies were initiated to evaluate the ability of various compounds disclosed herein to synergize with several compounds known to inhibit the function of the EGF receptor in a cell proliferation assay (MTT assay).
The EGFR inhibitor and AD4 compound dilutions were then mixed 1:1 in a 96 well plate. 50 μl of the mix was then added to the cell plate.
A shifting of the inhibitor curve to the left indicates an increase in the effectiveness of the AD4-compound.

[2] = target: T1, EGFR (Homo sapiens, UniProt P00533); assay: EGFR in-cell Western (ICW) screening protocol; type: cell-based; set-up: unit not given here; conditions: listed as 1505
T1 construct: endogenous in cells; host or cells: A431 cells (ATCC CRL-1555)
In short: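 Serum-starved cells treated with compound 4 h at 37 °C, then stimulated with EGF (20 or 0 ng/ml solution added) in its continued presence. In-cell Western on fixed cells: phospho-EGFR (800 channel) normalised to total EGFR (700 channel), % inhibition calculated against EGF-stimulated and unstimulated no-compound wells.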

[3] = target: T2, EGF binding site, rat liver membranes (Rattus norvegicus, UniProt G3V6K6); assay: Inhibition of [125I]EGF binding (NovaScreen EGF inhibitor assay)
T2 construct: Receptor source was rat liver membranes; tissue NovaScreen BioSciences; host or cells: rat liver membranes
Protocol: Identified compounds, representing various pharmacaphore models, were tested for ability to inhibit EGFR at 25 μM.
AD4-compounds were identified using pharmacophore models (see Example 3) and then were docked with the binding site of EGFR (SEQ ID NO: 1) that is recognized by defined CDRs of cetuximab.
Receptor source was rat liver membranes. The radioligand was [^125I]EGF ([…]) at a final ligand concentration of 0.36 nM. A non-specific determinant was used as EGF—[100 nM]. The reference compound and positive control was EGF. Reactions were carried out in 10 mM HEPES (pH 7.4) containing 0.1% BSA at 25° C. for 60 minutes. The reaction was terminated by rapid vacuum filtration onto glass fiber filters. Radioactivity trapped onto the filters was determined and compared to control values to ascertain any interactions of test compounds with the EGF binding site. The EGF inhibitor assays were modified from, for example, Mukku (1984) J. Biol. Chem. 259, 6543-6546; Duh et al. (1990) World J. Surgery 14, 410-418; Lokeshwar et al. (1989) J. Biol. Chem. 264(32), 19318-19326.

[4] = tested on: MDBK line; assay: MTT Cell Proliferation Assay, MDBK line; type: cell-based, bovine; conditions: 72 h; second value of A431/MDBK pair; read-out: MTT-72 h MDBK
In short: (§1)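 Cells plated overnight, then exposed 3 days at 37 °C, 5% CO2 to compound in growth medium with 0.5% FBS and 0.5% DMSO final (0.5% DMSO as control).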

[5] = tested on: epithelial carcinoma A431 cell line; assay: MTT Cell Proliferation Assay, A431 cell line; type: cell-based; conditions: 72 h
In short: as §1

[6] = Stability on incubation with mouse liver microsomes (MLM); type: in vitro ADME; conditions: percentage left after incubation with mouse liver microsomes for 30 minutes
In short: (§2)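 Values are percent compound remaining after 30 min incubation with mouse or human liver microsomes.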

[7] = tested on: DNA fragmentation in A549 cells; assay: DNA Fragmentation Assay (Cell Death Detection ELISA); type: cell-based; conditions: Caspase, DNA Fragmentation, Annexin-V
[8] = tested on: annexin V in A549 cells; conditions: for % Total Apoptosis: cells in early- and late-stage apoptosis; for % Relative to Reference Cpd.: reference 4.0 μM camptothecin or 1.0 μM staurosporin
Description: Assays that measure apoptosis are utilized to determine whether or not compounds can induce programmed cell death in cancer cells. Annexin V is a protein that is used to detect apoptosis by binding to phosphatidylserine expressed on membranes of dead or dying cells. Fluorescently tagged with FITC, it can he used in conjunction with 7-aminoactinomycin D to determine the percentage of cells undergoing apoptosis via flow cytometry. Cells in early apoptosis will emit an FITC signal which will eventually be replaced by the far red 7-AAD signal that is associated with cell membrane permeability due to necrosis.
In brief, for the Annexin V Assay, compounds were added to cells plated in 6-well plates. Treated cells were incubated for up to 30 hours before addition of fluorescent cell marker probes that detect the presence of annexin V. The percentage of cells undergoing apoptosis and necrosis were determined by flow cytometry.
On day 2, working solutions of compounds (at 1000×) were prepared. To 2.0 ml media/well was added 2 μl 1000× compound diluted in 100% DMSO for final DMSO concentration of 0.1%. On day 3, plates were incubated for 30 hrs. […] Cells were collected by centrifugation at 300×g for 5 min.
Resuspended cells were stored at 4° C. in the dark, until flow cytometry analysis.
For flow cytometry analysis of the Annexin V Assay, sample acquisition was on the BD LSR II manufactured by BD Biosciences, San Jose, Calif. […] 10,000 events werer collected based on a stopping gate of forward scatter vs side scatter light. Acquisition was done through BD FACS DiVa software version 6.1.1 on high flow rate (60 μL/min). Calculations were as follows: Quadrant 3=lower left=live cells; Quadrant 4=lower right=early apoptosis; Quadrant 2=upper right=late apoptosis; Quadrant 1=upper left=dead cells. Percent (%)Total apoptosis was calculated as early (quadrant 4)+late (quadrant 2). Percent (%) ratio apoptosis was calculated as (experimental-No treatment/positive control)*100. All statistical analyses are done using GraphPad Prism or Microsoft Excel.

[9] = Stability on incubation with human liver microsomes (HLM); type: in vitro ADME; conditions: percentage left after incubation with human liver microsomes for 30 minutes
In short: as §2

[10] = tested on: HT-29 cells; assay: HT-29 Cell Proliferation Assay (MTT); type: cell-based; conditions: Homo sapiens, HT-29, 72 h, read-out: IC50 Value (μM) HT-29 Cells
[11] = tested on: H1975 cells; assay: H1975 Cell Proliferation Assay (MTT); type: cell-based; conditions: Homo sapiens, NCI-H1975, 72 h, read-out: IC50 Value (μM) H1975 Cells
[12] = tested on: A549 cells; assay: A549 Cell Proliferation Assay (MTT); type: cell-based; conditions: Homo sapiens, A549, 72 h, read-out: IC50 Value (μM) A549 Cells
[13] = tested on: caspase 3,7 activity in A431 cells; assay: cells
Description: As described below, the capsase 3,7 assay uses the Promega Caspase-Glo 3/7 assay kit (cat no. G8092).
The Caspase-Glo® 3/7 Assay is a luminescent assay that measures caspase-3 and −7 activities in purified enzyme preparations or cultures of adherent or suspension cells. The assay provides a proluminescent caspase-3/7 substrate, which contains the tetrapeptide sequence, DEVD. This substrate is cleaved to release aminoluciferin, a substrate of luciferase used in the production of light. The Caspase-Glo® 3/7 Reagent has been optimized for caspase activity, luciferase activity and cell lysis. The addition of the single Caspase-Glo® 3/7 Reagent in an “add-mix-measure” format results in cell lysis, followed by caspase cleavage of the substrate and generation of a “glow-type” luminescent signal. The Caspase-Glo® 3/7 Assay is designed for use with multiwell plate formats, making it ideal for automated high-throughput screening of caspase activity or apoptosis.
Staurosporine was used as a positive control.
For the capsase 3,7 assay, cells were incubated for 5.5 hrs at 37° C., 5% CO2. The plate was removed from the incubator and equilibrated to room temperature. After 30 min, 25 μl Caspase 3/7 detection reagent (Promega Caspase-Glo 3/7 assay kit, cat no. G8092) was added to each well. The plate was covered with tin foil and shaken on a plate shaker at speed 4 for 3 min. The plate was then incubated for an additional 60 min at room temperature. Luminescence was detected using the PolarStar plate reader.
All statistical analyses were done using GraphPad Prism.
The assay was stopped after 6 hrs and the presence of caspase was measured using the Promega Caspase-Glo® 3/7 Assay.

[14] = Homo sapiens, A-431, read-out: Total Apoptosis (increase in caspase 3,7 activity as percentage of the maximal response)

T1 sequence (P00533 25-1210): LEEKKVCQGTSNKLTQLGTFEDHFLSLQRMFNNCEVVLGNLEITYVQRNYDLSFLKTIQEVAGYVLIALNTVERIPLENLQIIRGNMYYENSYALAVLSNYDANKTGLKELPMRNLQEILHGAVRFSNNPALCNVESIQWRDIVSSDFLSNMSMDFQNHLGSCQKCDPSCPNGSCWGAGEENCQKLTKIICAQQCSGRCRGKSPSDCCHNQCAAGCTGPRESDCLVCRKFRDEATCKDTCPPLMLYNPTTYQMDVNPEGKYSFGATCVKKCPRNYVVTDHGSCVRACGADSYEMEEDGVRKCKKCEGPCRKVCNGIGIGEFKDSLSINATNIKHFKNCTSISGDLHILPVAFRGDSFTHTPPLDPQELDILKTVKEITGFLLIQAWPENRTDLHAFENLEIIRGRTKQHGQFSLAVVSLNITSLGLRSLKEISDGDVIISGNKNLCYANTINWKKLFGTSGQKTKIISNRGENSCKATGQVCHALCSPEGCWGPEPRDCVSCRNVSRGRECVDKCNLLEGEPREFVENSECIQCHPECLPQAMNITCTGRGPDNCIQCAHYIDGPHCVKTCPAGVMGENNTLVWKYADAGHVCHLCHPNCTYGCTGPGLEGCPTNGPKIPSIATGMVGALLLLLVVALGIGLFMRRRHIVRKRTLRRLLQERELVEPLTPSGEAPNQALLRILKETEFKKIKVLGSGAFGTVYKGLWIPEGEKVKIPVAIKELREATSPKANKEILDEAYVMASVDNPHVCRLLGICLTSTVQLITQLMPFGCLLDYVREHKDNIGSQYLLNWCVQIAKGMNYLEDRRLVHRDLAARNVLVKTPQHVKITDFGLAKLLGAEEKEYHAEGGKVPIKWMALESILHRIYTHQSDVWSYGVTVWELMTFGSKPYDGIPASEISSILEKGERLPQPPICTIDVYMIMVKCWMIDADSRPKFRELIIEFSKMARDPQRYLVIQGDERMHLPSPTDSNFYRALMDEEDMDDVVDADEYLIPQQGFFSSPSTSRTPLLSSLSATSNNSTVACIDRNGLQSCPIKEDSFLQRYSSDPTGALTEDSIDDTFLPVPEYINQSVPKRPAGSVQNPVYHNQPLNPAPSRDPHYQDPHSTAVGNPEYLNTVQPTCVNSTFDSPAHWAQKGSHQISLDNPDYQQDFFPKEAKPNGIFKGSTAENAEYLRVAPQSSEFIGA
T2 sequence (G3V6K6 25-1209): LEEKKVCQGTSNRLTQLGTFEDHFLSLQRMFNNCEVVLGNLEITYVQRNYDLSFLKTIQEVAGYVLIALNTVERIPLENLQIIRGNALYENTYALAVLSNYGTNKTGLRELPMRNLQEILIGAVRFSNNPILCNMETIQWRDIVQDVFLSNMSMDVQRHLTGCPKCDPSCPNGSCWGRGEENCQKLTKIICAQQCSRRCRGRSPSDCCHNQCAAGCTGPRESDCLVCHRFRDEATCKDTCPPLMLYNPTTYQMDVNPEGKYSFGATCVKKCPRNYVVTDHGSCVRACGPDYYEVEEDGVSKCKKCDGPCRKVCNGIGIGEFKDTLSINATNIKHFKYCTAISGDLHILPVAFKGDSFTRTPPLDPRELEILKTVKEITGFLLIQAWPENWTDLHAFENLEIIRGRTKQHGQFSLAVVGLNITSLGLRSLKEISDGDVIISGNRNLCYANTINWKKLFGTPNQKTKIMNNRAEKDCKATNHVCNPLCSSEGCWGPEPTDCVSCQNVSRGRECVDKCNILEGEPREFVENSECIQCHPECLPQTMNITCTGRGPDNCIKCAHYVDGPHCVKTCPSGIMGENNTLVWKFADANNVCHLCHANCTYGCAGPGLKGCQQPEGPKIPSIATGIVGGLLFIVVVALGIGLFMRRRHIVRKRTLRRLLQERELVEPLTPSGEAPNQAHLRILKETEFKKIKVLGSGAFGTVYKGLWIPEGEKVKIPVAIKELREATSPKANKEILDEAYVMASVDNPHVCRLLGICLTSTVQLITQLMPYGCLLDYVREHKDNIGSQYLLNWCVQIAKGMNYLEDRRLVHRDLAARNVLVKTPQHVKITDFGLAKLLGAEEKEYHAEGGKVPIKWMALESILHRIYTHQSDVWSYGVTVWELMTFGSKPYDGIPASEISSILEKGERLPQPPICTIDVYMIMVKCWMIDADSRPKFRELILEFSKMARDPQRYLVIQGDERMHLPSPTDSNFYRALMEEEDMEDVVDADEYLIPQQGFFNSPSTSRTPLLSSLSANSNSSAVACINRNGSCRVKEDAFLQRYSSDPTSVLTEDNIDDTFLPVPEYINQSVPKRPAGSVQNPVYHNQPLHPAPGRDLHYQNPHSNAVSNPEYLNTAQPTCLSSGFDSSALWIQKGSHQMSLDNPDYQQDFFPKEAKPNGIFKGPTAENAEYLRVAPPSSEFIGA

COc1ccc(C(Nc2cc(C)ccn2)c2ccc3cccnc3c2O)cc1O (centres unmarked) [AD4-1505]
CI @ ED90 ([1]; Combination Index with Iressa at 90% inhibition): 0.59 | CI @ ED90 ([1]; Combination Index with Tykerb at 90% inhibition): 0.10 | DRI @ ED97 ([1]; effect of the test compound on Iressa): 78 | DRI @ ED97 ([1]; effect of the test compound on Tykerb): 203 | synergy with Iressa ([1]; based on CI value): shows synergy | synergy with Tykerb ([1]; based on CI value): significant synergy | shift in Tykerb's dose-response curve ([1]; in combination with Tykerb): leftward shift (i.e., greater potency) | IC50 ([1]; read-out: IC50 Iressa + Compound (nM)): 133 nM | ICW Screen ([2]; initial screen): 55.71 | ICW Re-Test ([2]; re-test): 47.05 | inhibition of epidermal growth factor binding [3]: inhibitor of epidermal growth factor binding to its receptor | IC50 [4]: 9330 nM | IC50 ([5]; first value of A431/MDBK pair, read-out: MTT-72 h A431): 8360 nM | MTT-72 h A431/MDBK (ratio) ([5]; value in brackets, numerically MDBK value over A431 value, listed as 1505): 1.12

Oc1c(C(Nc2cc(Cl)c(Cl)cn2)c2ccc(F)cc2Cl)ccc2cccnc12 (centres unmarked) [AD4-13185]
MLM % Remaining@ 30 Min [6]: 57% | apoptotic activity [7]: increased apoptotic activity | apoptosis, share of the cell population ([8]; 1 μM, A549 cells, FIG. 16B): greater than 50% | % Total Apoptosis ([8]; 1 μM, A549 cells): 42% | % Relative to Reference Cpd. ([8]; 1 μM): 161% | late apoptosis, share of the cell population ([8]; 10 μM, A549 cells, FIG. 16B): up to 20% | % Total Apoptosis ([8]; 10 μM, A549 cells): 30% | % Relative to Reference Cpd. ([8]; 10 μM): 202% | HLM % Remaining@ 30 Min [9]: 98% | IC50 [10]: 1.2 µM | IC50 [11]: 0.23 µM | IC50 [12]: 0.18 µM

Oc1c(C(Nc2ncc(F)cc2F)c2cc(Cl)cc(Cl)c2Cl)ccc2cccnc12 (centres unmarked) [AD4-13181]
IC50 [11]: 0.58 µM | IC50 [12]: 0.12 µM | Emax at 8 µM [13, 14]: 43% | Emax at 16 µM [13, 14]: 47% | Ability to Synergize with Tarceva ([13]; caspase 3,7 activity, A431 cells): ++ (0.7-0.85 Moderate synergism)

Cc1cc(Cl)cnc1NC(c1cccc(Cl)c1Cl)c1ccc2cccnc2c1O (centres unmarked) [AD4-13147]
MLM % Remaining@ 30 Min [6]: 44% | % Total Apoptosis ([8]; 1 μM, A549 cells): 29% | % Total Apoptosis ([8]; 10 μM, A549 cells): 28% | HLM % Remaining@ 30 Min [9]: 98% | IC50 [10]: 0.77 µM | IC50 [11]: 0.29 µM | IC50 [12]: 0.11 µM
